According to ChEMBL document CHEMBL1201862, “PubChem BioAssay data set” (2004):
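Tested at 5 concentrations; 48 h exposure; 96-well plates; endpoints linearly interpolated, else capped at highest concentration. GI50 = concentration required for 50% inhibition of growth.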 The source made the active and inactive calls. Cut-off read from the data, not from the text of the source: active = GI50 up to about 1.1 µM and inactive = higher.

Tests used:
Test in all cases: NCI-60 cell line screen, 48 h
SK-MEL-28 = system: SK-MEL-28
OVCAR-8 = system: OVCAR-8
A498 = system: A498
HT-29 = system: HT-29
SR = system: SR
Malme-3M = system: Malme-3M
NCI-H460 = system: NCI-H460
MOLT-4 = system: MOLT-4
T47D = system: T47D
NCI-H23 = system: NCI-H23
HCC 2998 = system: HCC 2998
HCT-116 = system: HCT-116
M14 = system: M14
DU-145 = system: DU-145
SN12C = system: SN12C
SNB-19 = system: SNB-19
BT-549 = system: BT-549
RXF 393 = system: RXF 393
SF-539 = system: SF-539
NCI-H522 = system: NCI-H522
MCF7 = system: MCF7
UACC-62 = system: UACC-62
MDA-N = system: MDA-N
TK-10 = system: TK-10
A549 = system: A549
HOP-92 = system: HOP-92
UACC-257 = system: UACC-257
SNB-75 = system: SNB-75
MDA-MB-435 = system: MDA-MB-435
MDA-MB-231 = system: MDA-MB-231
CAKI-1 = system: CAKI-1
Hs-578T = system: Hs-578T
SK-MEL-5 = system: SK-MEL-5
OVCAR-4 = system: OVCAR-4
SF-295 = system: SF-295
HOP-62 = system: HOP-62
EKVX = system: EKVX
SW-620 = system: SW-620
786-0 = system: 786-0
SK-MEL-2 = system: SK-MEL-2
LOX IMVI = system: LOX IMVI
K562 = system: K562
HL-60 = system: HL-60
U-251 = system: U-251
SK-OV-3 = system: SK-OV-3
IGROV-1 = system: IGROV-1
UO-31 = system: UO-31
HCT-15 = system: HCT-15
NCI-H226 = system: NCI-H226
RPMI-8226 = system: RPMI-8226
OVCAR-3 = system: OVCAR-3
COLO 205 = system: COLO 205
ACHN = system: ACHN
CCRF-CEM = system: CCRF-CEM
SF-268 = system: SF-268
PC-3 = system: PC-3
NCI/ADR-RES = system: NCI/ADR-RES
OVCAR-5 = system: OVCAR-5
KM12 = system: KM12

`C/C(=N/NC(=S)Nc1ccccc1Cl)c1ccccn1` was tested, and the GI50 (SK-MEL-28) was 4060 nM (inactive), the GI50 (OVCAR-8) was 20.6 nM (active) and the GI50 (A498) was 1460 nM (inactive). For the same compound, the GI50 (HT-29) was < 10 nM (active), the GI50 (SR) was < 13.9 nM (active) and the GI50 (Malme-3M) was 429 nM (active). For the same compound, the GI50 (NCI-H460) was 38.2 nM (active), the GI50 (MOLT-4) was < 10.9 nM (active) and the GI50 (T47D) was < 37.1 nM (active). The GI50 (NCI-H23) was < 16.1 nM (active), the GI50 (HCC 2998) was 2980 nM (inactive) and the GI50 (HCT-116) was < 12.9 nM (active). For the same compound, the GI50 (M14) was < 21.1 nM (active), the GI50 (DU-145) was 1060 nM (active) and the GI50 (SN12C) was 129 nM (active). The GI50 (SNB-19) was 1790 nM (inactive), the GI50 (BT-549) was 4390 nM (inactive) and the GI50 (RXF 393) was 1410 nM (inactive). For the same compound, the GI50 (SF-539) was 1110 nM (active), the GI50 (NCI-H522) was 1110 nM (active) and the GI50 (MCF7) was < 11.9 nM (active). For the same compound, the GI50 (UACC-62) was 173 nM (active), the GI50 (MDA-N) was 452 nM (active) and the GI50 (TK-10) was 113 nM (active). The GI50 (A549) was 58.2 nM (active), the GI50 (HOP-92) was 1030 nM (active) and the GI50 (UACC-257) was < 15.1 nM (active). For the same compound, the GI50 (SNB-75) was 8730 nM (inactive), the GI50 (MDA-MB-435) was 665 nM (active) and the GI50 (MDA-MB-231) was < 16.4 nM (active). For the same compound, the GI50 (CAKI-1) was 67.5 nM (active), the GI50 (Hs-578T) was 8530 nM (inactive) and the GI50 (SK-MEL-5) was 75.3 nM (active). The GI50 (OVCAR-4) was 249 nM (active), the GI50 (SF-295) was 98.6 nM (active) and the GI50 (HOP-62) was < 41.5 nM (active). The GI50 (EKVX) was 98 nM (active), the GI50 (SW-620) was < 16.8 nM (active) and the GI50 (786-0) was 88.9 nM (active). The GI50 (SK-MEL-2) was 1980 nM (inactive), the GI50 (LOX IMVI) was 10 nM (active) and the GI50 (K562) was < 10 nM (active). For the same compound, the GI50 (HL-60) was < 11.3 nM (active), the GI50 (U-251) was 41.8 nM (active) and the GI50 (SK-OV-3) was 43 nM (active). The GI50 (IGROV-1) was < 13.7 nM (active), the GI50 (UO-31) was 583 nM (active) and the GI50 (HCT-15) was under 16.5 nM. For the same compound, the GI50 (NCI-H226) was < 40.1 nM (active), the GI50 (RPMI-8226) was < 14.9 nM (active) and the GI50 (OVCAR-3) was 13.6 nM (active). The GI50 (COLO 205) was < 16.2 nM (active), the GI50 (ACHN) was 40.2 nM (active) and the GI50 (CCRF-CEM) was < 10 nM (active). The GI50 (SF-268) was 84.3 nM (active), the GI50 (PC-3) was < 14.3 nM (active) and the GI50 (NCI/ADR-RES) was 91.4 nM (active). The GI50 (OVCAR-5) was < 21.1 nM (active) and the GI50 (KM12) was 70.5 nM (active).
